Our source for the inhibition in vivo values is patent US6867192B1, “Compounds useful in the treatment of inflammatory diseases” (priority 1998, dated 2005).

The test system of this test is ovalbumin sensitised guinea pigs. In words: Inhibition of eosinophil infiltration and hyper-reactivity in the guinea pig. It counts as in vivo. The settings on record: Cavia porcellus, Eosinophil, inhaled or nasal, 24 h, 0.5 hours before and 6 hours after antigen challenge; for inhibition in vivo at 0.002 mg/kg: intratracheal dose 2 μg/kg body weight; for inhibition in vivo at 0.0002 mg/kg: intratracheal dose 0.2 μg/kg body weight. As for the experimental part: (3) Inhibition of Eosinophil Infiltration and Hyper-Reactivity in the Guinea Pig
In a method based on that described by Danahay et al., 1997, ovalbumin sensitised guinea pigs were dosed with mepyramine (30 mg kg^−1 ip) to protect against anaphylactic bronchospasm. Test compounds, dissolved in 0.9% saline, were given by the inhaled route (30 minutes breathing of an aerosol of the compound) or the intra-tracheal route, 30 minutes before and 6 hours after ovalbumin challenge (10 minutes breathing of an aerosol generated from a 0.5% solution of ovalbumin). Hyper-reactivity of the airways to the thromboxane mimetic U46619, was measured 24 hours after ovalbumin challenge in un-restrained animals using a whole body plethysmograph (Buxco Ltd., USA). The guinea pigs were then sacrificed and the lungs lavaged. Total and differential leukocyte counts were then obtained for the bronchoalveolar lavage fluid and the percentage reduction in eosinophil accumulation determined (Sanjar et al., 1992). Dexamethasone (200 μg kg^−1 i.t) was used as a positive control. Data was presented as the inhibitory effect of the specified dose expressed as a percentage of the vehicle control response.

Setting [1] is: airway hyper-reactivity to U46619, read-out: % Inhibition Hyper-reactivity.
Where [2] appears, read: read-out: % Inhibition Eosinophil Accumulation.

Where two headings read alike, the source gives them in different places.

On to `CC(C)C[C@H](NC(=O)COc1ccccc1I)C(=O)N[C@@H](Cc1ccc(OC(=O)N2CCOCC2)cc1)C(=O)O` [Example 23, (2S)-2-[((2S)-2-{[2-(2-Iodophenoxy)acetyl]amino}-4-methylpentanoyl)amino]-3-{4-[(4-morpholinylcarbonyl)oxy]phenyl}propanoic acid], for which the inhibition in vivo at 0.002 mg/kg is, setting by setting: under setting [1], 79%; under setting [2], 51%.

For `CC(C)C[C@H](NC(=O)c1cccc2c1oc1ccccc12)C(=O)N[C@@H](Cc1ccc(OC(=O)N2CCC(C(N)=O)CC2)cc1)C(=O)O` [Example 28, (2S)-3-[4-({[4-(Aminocarbonyl)-1-piperidinyl]carbonyl}oxy)phenyl]-2-({(2S)-2-[(dibenzo[b,d]furan-4-ylcarbonyl)amino]-4-methylpentanoyl}amino)propanoic acid], under setting [1], the inhibition in vivo at 0.0002 mg/kg worked out at 70% and the inhibition in vivo at 0.002 mg/kg was found to be 47%. Besides, under setting [2], the inhibition in vivo at 0.0002 mg/kg was 3% and the inhibition in vivo at 0.002 mg/kg was determined as 62%.

Take `CC(=O)N1CCN(C(=O)Oc2ccc(C[C@H](NC(=O)[C@H](CC(C)C)NC(=O)COc3ccccc3C)C(=O)O)cc2)CC1` [Example 17, (2S)-3-(4-{[(4-Acetyl-1-piperazinyl)carbonyl]oxy}phenyl)-2-[((2S)-4-methyl-2-{[2-(2-methylphenoxy)acetyl]amino}pentanoyl)amino]propanoic acid]: under setting [1], the inhibition in vivo at 0.0002 mg/kg stood at 58% and the inhibition in vivo at 0.002 mg/kg is 88%. Further, under setting [2], the inhibition in vivo at 0.0002 mg/kg amounted to 68% and the inhibition in vivo at 0.002 mg/kg stood at 61%.

On to `CC(C)C[C@H](NC(=O)COc1ccccc1C(C)(C)C)C(=O)N[C@@H](Cc1ccc(OC(=O)N2CCN(C(=O)c3ccccc3)CC2)cc1)C(=O)O` [Example 20, (2S)-3-(4-{[(4-Benzoyl-1-piperazinyl)carbonyl]oxy}phenyl)-2-{[(2S)-2-({2-[2-(tert-butyl)phenoxy]acetyl}amino)-4-methylpentanoyl]amino}propanoic acid], for which the inhibition in vivo at 0.0002 mg/kg under setting [1] was 85% and the inhibition in vivo at 0.0002 mg/kg under setting [2] was found to be 67%. Moreover, the inhibition in vivo at 0.002 mg/kg under setting [1] came out at 100% and the inhibition in vivo at 0.002 mg/kg under setting [2] was 79%.

Consider `CC(C)C[C@H](NC(=O)COc1ccccc1C(C)(C)C)C(=O)N[C@@H](Cc1ccc(OC(=O)N2CCOCC2)cc1)C(=O)O` [Example 24, (2S)-2-{[(2S)-2-({2-[2-(Tert-butyl)phenoxy]acetyl}amino)-4-methylpentanoyl]amino}-3-{4-[(4-morpholinylcarbonyl)oxy]phenyl}propanoic acid], for which, under setting [1], the inhibition in vivo at 0.0002 mg/kg turned out to be 44% and the inhibition in vivo at 0.002 mg/kg was 85%. Under setting [2], the inhibition in vivo at 0.0002 mg/kg turned out to be 26% and the inhibition in vivo at 0.002 mg/kg amounted to 77%.

For `CC(=O)N1CCN(C(=O)Oc2ccc(C[C@H](NC(=O)[C@H](CC(C)C)NC(=O)COc3ccccc3C(C)(C)C)C(=O)O)cc2)CC1` [Example 16, (2S)-3-(4-{[(4-Acetyl-1-piperazinyl)carbonyl]oxy}phenyl)-2-{[(2S)-2-({2-[2-(tert-butyl)phenoxy]acetyl}amino)-4-methylpentanoyl]amino}propanoic acid], the inhibition in vivo at 0.0002 mg/kg under setting [1] was 80% and the inhibition in vivo at 0.0002 mg/kg under setting [2] worked out at 62%. In addition, the inhibition in vivo at 0.002 mg/kg reads like this: under setting [1], 95%; under setting [2], 78%.

As to `Cc1ccccc1OCC(=O)N[C@@H](CC(C)C)C(=O)N[C@@H](Cc1ccc(OC(=O)N2CCN(C(=O)c3ccccc3)CC2)cc1)C(=O)O` [Example 21, (2S)-3-(4-{[(4-Benzoyl-1-piperazinyl)carbonyl]oxy}phenyl)-2-[((2S)-4-methyl-2-{[2-(2-methylphenoxy)acetyl]amino}pentanoyl)amino]propanoic acid], under setting [1], the inhibition in vivo at 0.0002 mg/kg was found to be 82% and the inhibition in vivo at 0.002 mg/kg was found to be 85%. Under setting [2], the inhibition in vivo at 0.0002 mg/kg worked out at 49% and the inhibition in vivo at 0.002 mg/kg is 79%.

With `Cc1ccccc1OCC(=O)N[C@@H](CC(C)C)C(=O)N[C@@H](Cc1ccc(OC(=O)N2CCC(C(N)=O)CC2)cc1)C(=O)O` [Example 27, (2S)-3-[4-({[4-(Aminocarbonyl)-1-piperidinyl]carbonyl}oxy)phenyl]-2-[((2S)-4-methyl-2-{[2-(2-methylphenoxy)acetyl]amino}pentanoyl)amino]propanoic acid], under setting [1], the inhibition in vivo at 0.0002 mg/kg worked out at 88% and the inhibition in vivo at 0.002 mg/kg came out at 87%. In addition, under setting [2], the inhibition in vivo at 0.0002 mg/kg came out at 58% and the inhibition in vivo at 0.002 mg/kg was 90%.
